Here are results for eleven molecules from publication PMC9486168, “Protein-protein interaction-based high throughput screening for adenylyl cyclase 1 inhibitors: Design, implementation, and discovery of a novel chemotype” (Frontiers in Pharmacology, 2022).

Data set [1] deals with T1, AC1-C1b/CaM (Homo sapiens, UniProt P0DP23).
T1 construct: made in house; host or cells: E. coli BL21-CodonPlus (DE3)-RIPL
Nature of the data set: AC1-C1b/CaM fluorescence polarization (FP) assay. The class given is binding. The conditions noted are these: for IC50: 100 nM AC1-C1b, 100 nM GST-CaM, 95% CI in brackets; for Ki: Cheng-Prusoff from FP IC50 and Kd; for AC1-CaM FP % inhib: relative to 100 μM CDZ (100% inhibition), highest concentration tested; for inhibition of AC1/CaM in the FP assay after fresh powder stocks were ordered: repurchased powder.

For data set [2], the target named is T2, AC1/CaM PPI (Homo sapiens, UniProt P0DP23).
T2 construct: human AC1 (hAC1) residues 1–1,118 were cloned; The hCaM residues 1–149, residues 1–1,248 of rat AC8 (rAC8); expressed in transfected cells; host or cells: HEK293T, transient transfection
In words: AC1/CaM NanoBiT assay in HEK293T cells. The class given is cell-based. Conditions: HEK293T, thapsigargin-stimulated, AUC; for IC50: read-out: Nanobit: AC1-CaM IC50 (μM ± SEM).

Data set [3] can be described thus: CellTiter-Glo 2.0 cell viability assay.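 Also: luminescence read-out after 30 min compound exposure at 37 °C in HEPES-buffered HBSS, scaled to vehicle-treated cells as 100% and cell-free buffer wells as 0%.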 The conditions noted are these: human, HEK293T cells, pH 7.4; at the compound's AC1/CaM NanoBiT IC50 concentration; read-out: % Viable Cells at AC1 IC50. The class given is cell-based.
Data set [4] deals with T3, AC8-Nt/CaM (Homo sapiens, UniProt P0DP23).
T3 construct: made in house; host or cells: E. coli BL21-CodonPlus (DE3)-RIPL
Nature of the data set: AC8-Nt/CaM FP counterscreen assay.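 As to all read-outs here: fluorescence polarization of AC peptide binding GST-CaM in HEPES buffer with CaCl2, compound preincubated with CaM 30 min, peptide read after 2 h at room temperature in dark.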 Type of data set: binding. Conditions: for Ki / Ki (μM) AC8 NT: Cheng-Prusoff from FP IC50 and Kd, n/i given where none; for Ki ratio (AC8 NT/AC1): ratio >1: more potent in AC1/CaM FP.

Data set [5] deals with T4, AC8/CaM PPI (Homo sapiens, UniProt P0DP23).
T4 construct: confirmed as an AC1/AC8 non-selective hit against full-length AC1- and AC8-CaM in the NanoBiT assay; The hCaM residues 1–149, residues 1–1,248 of rat AC8 (rAC8); expressed in transfected cells; host or cells: HEK293T, transient transfection
In words: AC8/CaM NanoBiT assay in HEK293T cells. Conditions: HEK293T, thapsigargin-stimulated, AUC; read-out: Nanobit: AC8-CaM IC50 (μM ± SEM). The class given is cell-based, rat.

Data set [6] deals with T5, AC8-C2b/CaM (Homo sapiens, UniProt P0DP23).
T5 construct: made in house; host or cells: E. coli BL21-CodonPlus (DE3)-RIPL
Nature of the data set: AC8-C2b/CaM FP counterscreen assay.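 As to all read-outs here: fluorescence polarization of AC peptide binding to GST-CaM in HEPES buffer with KCl and 50 µM CaCl2, compound preincubated 30 min with GST-CaM, DMSO and calmidazolium as controls.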 Conditions: for Ki / Ki (μM) AC8 C2b: Cheng-Prusoff from FP IC50 and Kd, n/i given where none; for Ki ratio (AC8-C2b/AC1): ratio >1: more potent in AC1/CaM FP. Type of data set: binding.

“And” between values parts separate entries of the source, which are not always exact repeats. Equal entries are not always repeated. Structures can show the parent of a compound that is named as a salt.

As to `Clc1ccc(C(c2ccc(Cl)cc2)n2cc[n+](CC(OCc3ccc(Cl)cc3Cl)c3ccc(Cl)cc3Cl)c2)cc1` (centres unmarked) [CDZ, Calmidazolium], in data set [1], the IC90 was about 100 µM; the IC50 is 15.1 µM and ~15 µM.
With `CN(C)c1ccc2nc3ccc(=[N+](C)C)cc-3sc2c1` [Compound 2, Methylene Blue], the IC50 in data set [1] amounted to 2.18 µM; in data set [2] it was 98 ± 1.14 µM; in data set [5], 80.3 ± 1.14 µM. The Ki in data set [1] came out at 0.51 µM; in data set [4] it was 3.2 µM; in data set [6], 0.82 µM. In addition, the viability at 30 min in data set [3] was found to be 86%.
Regarding `CCCCCCCCCCCCCCCC[N+](C)(C)CCN(Cc1ccc(OC)cc1)c1ncccn1` [Compound 4, Thonzonium], in data set [1], the IC50 was 4.14 µM; the affinity, expressed as Ki, was 1 µM; the “AC1-CaM FP % inhib” value is 94%. In addition, the IC50 in data set [2] came to 29.1 ± 1.2 µM. For the same molecule, the viability at 30 min in data set [3] was 100%. Moreover, in data set [4], the inhibition constant Ki is 2.7 µM and the “Ki ratio (AC8 NT/AC1)” value is recorded as 2.7. For the same molecule, the IC50 in data set [5] amounted to 18.5 ± 1.26 µM. Further, in data set [6], affinity was put at a Ki of 3.6 µM and the “Ki ratio (AC8-C2b/AC1)” value stood at 3.7.
For the molecule `CCC(C)CC(C)CCCCCCCCC(=O)NC1CC(O)C(NCCN)NC(=O)C2C(O)CCN2C(=O)C(C(O)CCN)NC(=O)C(C(O)C(O)c2ccc(O)cc2)NC(=O)C2CC(O)CN2C(=O)C(C(C)O)NC1=O` (centres unmarked) [Compound 5, Caspofungin Acetate], in data set [1], the IC50 is 12.7 µM, the Ki came to 3 µM and the “AC1-CaM FP % inhib” value is recorded as 20%. Besides, in data set [4], the Ki came out at 6.3 µM; the “Ki ratio (AC8 NT/AC1)” value was 2 and 2.1. Besides, in data set [6], the affinity corresponds to a Ki of 6.2 µM; the “Ki ratio (AC8-C2b/AC1)” value is 2 and 2.1.
In data set [1], `CCC12CN3CC(CC)(CN(C1)C31C(=O)N(C)c3ccc(Br)cc31)C2=O` (centres unmarked) [Compound 14] came in with an IC50 of 58.2 µM and a Ki of 13.8 µM. Further, the IC50 in data set [2] is 84 ± 1.7 µM. Besides, in data set [3], the viability at 30 min came out at 100%. Besides, in data set [4], the “Ki (μM) AC8 NT” value is “n/i” and the “Ki ratio (AC8 NT/AC1)” value is given as “AC1 Selective”. Also, in data set [6], the “Ki (μM) AC8 C2b” value is recorded as “n/i” and the “Ki ratio (AC8-C2b/AC1)” value was “AC1 Selective”.
On to `CCNC(=O)c1cc2c(=O)n(C)c(=O)n(C)c2s1` [Compound 16], for which, in data set [1], half-maximal inhibition (IC50) was put at 24.2 µM and the Ki is 5.7 µM. Also, the “Nanobit: AC1-CaM IC50 (μM ± SEM)” value in data set [2] is “No Inhibition”. In data set [4], the “Ki (μM) AC8 NT” value is “n/i” and the “Ki ratio (AC8 NT/AC1)” value is “AC1 Selective”. Further, in data set [6], the “Ki (μM) AC8 C2b” value is given as “n/i” and the “Ki ratio (AC8-C2b/AC1)” value is recorded as “AC1 Selective”.
`CN1CCN(CCNC(=O)c2cc3c(=O)n(C)c(=O)n(C)c3s2)CC1` [Compound 17]: in data set [1], the IC50 came out at 75.4 µM, the Ki is 17.8 µM and the “AC1-CaM FP % inhib” value is given as 53%. The “Nanobit: AC1-CaM IC50 (μM ± SEM)” value in data set [2] is listed as “No Inhibition”. In data set [4], the “Ki (μM) AC8 NT” value was “n/i” and the “Ki ratio (AC8 NT/AC1)” value is given as “AC1 Selective”. In addition, in data set [6], the “Ki (μM) AC8 C2b” value is listed as “n/i” and the “Ki ratio (AC8-C2b/AC1)” value is reported as “AC1 Selective”.
Consider `Cc1ccc(S(=O)(=O)Nc2cc(N3CCCS3(=O)=O)ccc2C)cc1` [Compound 19], for which, in data set [1], the midpoint of inhibition, the IC50, lay at 43.4 µM and the Ki came out at 10.3 µM. Further, in data set [2], the “Nanobit: AC1-CaM IC50 (μM ± SEM)” value is reported as “No Inhibition”. In data set [4], the “Ki (μM) AC8 NT” value is on record as “n/i” and the “Ki ratio (AC8 NT/AC1)” value is listed as “AC1 Selective”. In addition, in data set [6], the “Ki (μM) AC8 C2b” value was “n/i” and the “Ki ratio (AC8-C2b/AC1)” value was “AC1 Selective”.
On to `CN1CCC[C@H]1c1cccnc1.O=C(O)C(O)C(O)C(=O)O.O=C(O)C(O)C(O)C(=O)O` [nicotine ditartrate], for which the “inhibition of AC1/CaM in the FP assay after fresh powder stocks were ordered” value in data set [1] is recorded as “did not exhibit significant inhibition”.
Same read-out and setting: next, `CCN(C)C(=O)Oc1cccc([C@H](C)N(C)C)c1` [rivastigmine tartrate]: “did not exhibit significant inhibition”; ethyl quinine: “did not exhibit significant inhibition”.
